Like-named read-outs stand apart in the source and are kept apart here.
Legend:
[1] = molecular target: T1, OR2M3 (Homo sapiens, UniProt Q8NG83); assay: hOR assay (GloSensor cAMP luciferase), dose-response; format: cell-based; conditions: OR2M3/pHEK plasmid
T1 construct: Lucy tag (N); expressed in transfected cells; host or cells: Flp-In T-REx-293 cells stably expressing RTP1S, Gαolf and Ric8-b
T1 sequence (Q8NG83 1-312): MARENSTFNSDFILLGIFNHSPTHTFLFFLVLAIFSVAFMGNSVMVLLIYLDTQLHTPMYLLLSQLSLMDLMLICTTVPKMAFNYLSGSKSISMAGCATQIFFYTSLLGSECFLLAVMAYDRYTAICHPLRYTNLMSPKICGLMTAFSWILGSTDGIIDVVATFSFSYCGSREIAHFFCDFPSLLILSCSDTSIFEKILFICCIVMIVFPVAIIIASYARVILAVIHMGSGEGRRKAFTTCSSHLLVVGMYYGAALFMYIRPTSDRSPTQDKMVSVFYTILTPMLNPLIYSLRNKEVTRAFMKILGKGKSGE
Experimental: (§1) Flp-In T-REx-293 cells stably expressing accessory proteins (RTP1S, Gαolf, and Ric8-b) were established using the Flp-In T-REx system. Accessory proteins-expressing cells were maintained in high-glucose Dulbecco’s modified Eagle medium (Sigma-Aldrich) containing 10% fetal bovine serum (Biowest) and 1% antibiotic–antimycotic (Nacalai tesque) at 37°C with 5% CO2.
(§2) The GloSensor™ Technology (Promega) was used for the luciferase assay of the hOR response. As the negative control, cells that were transfected by the pBApo-CMV neo vector and pHEK293 Ultra Expression Vector I were used as mock cells. hOR/pHEK and hOR/pBApo (50 ng/well) were transfected into the accessory proteins-expressing cell line (40000 cells/well) using Lipofectamine 2000 (Thermo Fisher Scientific) (400 nL/well) along with pGlosensor™-22F cAMP biosensor plasmid (Promega) (50 ng/well) in a 96-well plate. At 28 h posttransfection, the cells were washed with an assay buffer (140 mM NaCl, 10 mM HEPES, 5 mM KCl, 1 mM CaCl2・2H2O, 10 mM D-glucose, pH 7.5) and replaced with the assay buffer (50 μL/well) containing 2% GloSensor cAMP substrate and preincubated for 1 h at 25°C. Then, the assay buffer was added (130 μL/well). After 10 min of equilibration, the luminescence was measured (L0). Odorants diluted in 10% DMSO/assay buffer were treated (20 μL/well). After 9 min, the luminescence was measured (L9min). First, all the L9min values were subtracted by the L0 value (ΔL) and divided by the L0 value (ΔL/L0). The concentration range of the odorants was different for each odorant, but the minimum was 0.01 μM and the maximum was 3 mM. For all hORs, luciferase assays with hOR/pBApo and hOR/pHEK were conducted in the same 96-well plate each time, and luminescence was normalized to a maximum value of 100. Dose–response curve images were graphed using the Graph Pad Prism 9 software (Graph Pad Software).

[2] = molecular target: T2, OR1A1 (Homo sapiens, UniProt Q9P1Q5); assay: as above; format: cell-based; conditions: for EC50: read-out: EC50 value; for top value of OR1A1 dose-response curve: luminescence normalized to a maximum value of 100
T2 construct: Lucy tag (N); FLAG (N); Rho tag (N); expressed in transfected cells; host or cells: Flp-In T-REx-293 cells stably expressing RTP1S, Gαolf and Ric8-b
T2 sequence (Q9P1Q5 1-309): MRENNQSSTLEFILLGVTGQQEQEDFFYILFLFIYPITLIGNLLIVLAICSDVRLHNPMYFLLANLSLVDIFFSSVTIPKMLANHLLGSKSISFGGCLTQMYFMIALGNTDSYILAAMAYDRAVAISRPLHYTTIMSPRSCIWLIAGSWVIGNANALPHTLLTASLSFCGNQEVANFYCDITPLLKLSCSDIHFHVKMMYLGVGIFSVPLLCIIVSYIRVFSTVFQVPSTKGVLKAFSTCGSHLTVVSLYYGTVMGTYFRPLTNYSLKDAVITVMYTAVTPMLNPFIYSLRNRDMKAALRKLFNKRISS
Experimental: as §1, §2

Row | SMILES | EC50 [1] [nM] | response of HiBiT-tagged OR1A1 ([2]; OR1A1 with the HiBiT tag (S1 Fig)) | EC50 ([2]; OR1A1 with the TAR-Tat system (OR1A1/pHEK)) [nM] | EC50 ([2]; OR1A1 without the TAR-Tat system (OR1A1/pBApo)) [nM] | top value of OR1A1 dose-response curve ([2]; with the TAR-Tat system (OR1A1/pHEK)) | top value of OR1A1 dose-response curve ([2]; without the TAR-Tat system (OR1A1/pBApo))
1 | CCC(S)C(C)CO (stereo not drawn) [3-mercapto-2-methyl-1-pentanol] | 159 | – | – | – | – | –
2 | C=C(C)[C@H]1CC=C(C)C(=O)C1 [(+)-carvone] | – | a dose-dependent response was detected | 905 | 4400 | 90.4 | 53.9
